Series [1] relates to MRC-5. The series can be described thus: XTT antiproliferative assay, normal lung cells MRC-5. Particulars: Homo sapiens, MRC5, 72 h, mean ± SD. The class given is cell-based. As for the experimental part: (§1) All the synthesized 4-anilinoquinolinylchalcone derivatives were evaluated in vitro against two cancer cells (Huh-7 and MDA-MB-231) and a non-cancer normal fibroblast lung cell line (MRC-5) using an XTT (sodium 3′-[1-(phenylamino-carbonyl)-3,4-tetrazolium}-bis(4-methoxy-6-nitro)benzene sulfonic acid hydrate) assay. The concentration that inhibited the growth of 50% of cells (IC50) was determined from the linear portion of the curve by calculating the concentration of the tested agent that reduced absorbance in treated cells, compared to control cells, by 50%. The IC50 results of these 4-anilinoquinolinylchalcone derivatives are summarized (Table 1). […] Thus, 4a was selected as a lead compound for further mechanism studies.
(§2) Cancer cells (Huh-7, MDA-MB-231) and normal lung cells (MRC-5) were purchased from Bioresources Collection and Research Center, Taiwan. Cells were maintained in the same standard medium, grown as a monolayer in DMEM (Gibco, Miami, FL, USA), and supplemented with 10% fetal bovine serum (FBS) and antibiotics, i.e., 100 IU/mL penicillin, 0.1 mg/mL streptomycin and 0.25 μg/mL amphotericin. The culture was maintained at 37 °C with 5% CO2 in a humidified atmosphere. Cells (5 × 10^3 cells/well) were treated with tested compounds for 72 h in the medium containing 10% FBS. Cell viability was quantitated with the use of sodium 3′-[1-(phenylamino-carbonyl)-3,4-tetrazolium}-bis(4-methoxy-6-nitro)benzene sulfonic acid hydrate (XTT) colorimetric assay (Biological Industries, Beit-Haemek, Israel). XTT labeling reagent (1 mg/mL) was mixed with electron-coupling reagent, following the manufacturer’s instructions, and 50 μL of the mixture was added directly to the cells. The plates were further incubated at 37 °C for 4 h. Color was measured spectrophotometrically in a microtiter plate reader at 492 nm and used as a relative measurement of viable cell numbers. After drug treatment, the viable cell number was compared to the solvent and untreated control cell number. This information was used to determine the percent of control growth as (Abtreated/Abcontrol) × 100, where Ab represents the mean absorbance (n = 3). The concentration that killed 50% of cells (IC50) was determined from the linear portion of the curve by calculating the concentration of the agent that reduced the absorbance in treated cells, compared to control cells, by 50%.

In series [2] the test system is Huh-7. As to the kind of experiment: XTT antiproliferative assay, Huh-7. The class given is cell-based. The conditions noted are these: Homo sapiens, 72 h, mean ± SD. The procedure: as §1, §2
In general terms: Formazan colour is commonly taken as a measure of viable cells.

In series [3] the test system is MDA-MB-231. The series can be described thus: XTT antiproliferative assay, MDA-MB-231. Particulars: Homo sapiens, 72 h, mean ± SD. The class given is cell-based. As for the experimental part: as §1, §2

Counter-ions that a name gives are not always drawn.

One may read the melting point as the temperature, or range, at which the solid turns liquid. Take `COc1ccc(C(=O)/C=C/c2cc(Nc3ccc(OCc4ccccc4)cc3)c3ccccc3n2)cc1` (as salt: salt) [Compound 4a, (E)-3-{4-{[4-(Benzyloxy)phenyl]amino}quinolin-2-yl}-1-(4-methoxyphenyl)prop-2-en-1-one]: the melting point is 200 to 201 °C.

As to `COc1ccc(C(=O)/C=C/c2cc(Nc3ccc(OCc4ccccc4Cl)cc3)c3ccccc3n2)cc1` (as salt: salt) [Compound 4b, (E)-3-{4-{{4-[(2-Chlorobenzyl)oxy]phenyl}amino}quinolin-2-yl}-1-(4-methoxy - phenyl) prop-2-en-1-one], the melting point lay in the range of 160 to 161 °C.

For `COc1ccc(C(=O)/C=C/c2cc(Nc3ccc(OCc4ccccc4F)cc3)c3ccccc3n2)cc1` (as salt: salt) [Compound 4c], the melting point lay in the range of 175 to 176 °C.

`COc1ccc(C(=O)/C=C/c2cc(Nc3ccc(OCc4cccc(Cl)c4)cc3)c3ccccc3n2)cc1` (as salt: salt) [Compound 4d, (E)-3-{4-{{4-[(3-Chlorobenzyl)oxy]phenyl}amino}quinolin-2-yl}-1-(4-methoxy-phenyl) prop-2-en-1-one] returned a melting point of 132 to 133 °C.

`COc1ccc(C(=O)/C=C/c2cc(Nc3ccc(OCc4cccc(F)c4)cc3)c3ccccc3n2)cc1` (as salt: salt) [Compound 4e, (E)-3-{4-{{4-[(3-Fluorobenzyl)oxy]phenyl}amino}quinolin-2-yl}-1-(4-methoxy-phenyl) prop-2-en-1-one] yielded a melting point of 171 to 172 °C.

`COc1ccc(C(=O)/C=C/c2cc(Nc3ccc(OCc4ccc(Cl)cc4)cc3)c3ccccc3n2)cc1` (as salt: salt) [Compound 4g, (E )-3-{4-{{4-[(4-Chlorobenzyl)oxy]phenyl}amino}quinolin-2-yl}-1-(4-methoxy - phenyl)prop-2-en-1-one] yielded a melting point of 142 to 143 °C.

The IC50 is the point on the concentration scale where inhibition reaches its midpoint. Low readings indicate inhibition by little substance, high ones a need for much substance. With `COc1ccc(C(=O)/C=C/c2cc(Nc3ccc(OCc4ccccc4Cl)cc3)c3ccccc3n2)cc1` [Compound 4b, (E)-3-{4-{{4-[(2-Chlorobenzyl)oxy]phenyl}amino}quinolin-2-yl}-1-(4-methoxy - phenyl) prop-2-en-1-one], the IC50 is > 20000 nM in series [1], 1830 ± 220 nM in series [2] and 1590 ± 150 nM in series [3].

Consider `COc1ccc(C(=O)/C=C/c2cc(Nc3ccc(OCc4ccccc4F)cc3)c3ccccc3n2)cc1` [Compound 4c], for which the values for the IC50 in series [1], in series [2] and in series [3] were > 20000 nM, 810 ± 60 nM and 1040 ± 40 nM, respectively.

For `COc1ccc(C(=O)/C=C/c2cc(Nc3ccc(OCc4cccc(Cl)c4)cc3)c3ccccc3n2)cc1` [Compound 4d, (E)-3-{4-{{4-[(3-Chlorobenzyl)oxy]phenyl}amino}quinolin-2-yl}-1-(4-methoxy-phenyl) prop-2-en-1-one], the half-maximal inhibitory concentration (IC50) in series [1] is > 20000 nM; in series [2], 690 ± 40 nM; in series [3], 180 ± 60 nM.

`COc1ccc(C(=O)/C=C/c2cc(Nc3ccc(OCc4cccc(F)c4)cc3)c3ccccc3n2)cc1` [Compound 4e, (E)-3-{4-{{4-[(3-Fluorobenzyl)oxy]phenyl}amino}quinolin-2-yl}-1-(4-methoxy-phenyl) prop-2-en-1-one]: the results for the 50% inhibitory concentration (IC50) in series [1], in series [2] and in series [3] were > 20000 nM, 1450 ± 280 nM and 540 ± 110 nM, respectively.

As for `COc1ccc(C(=O)/C=C/c2cc(Nc3ccc(OCc4cccc(OC)c4)cc3)c3ccccc3n2)cc1` [Compound 4f, (E)-3-{4-{{4-[(3-Methoxybenzyl)oxy]phenyl}amino}quinolin-2-yl}-1-(4-methoxy - phenyl)prop-2-en-1-one], the IC50 is > 20000 nM in series [1], 1410 ± 40 nM in series [2] and 1940 ± 520 nM in series [3].

Turning to `COc1ccc(C(=O)/C=C/c2cc(Nc3ccc(OCc4ccc(Cl)cc4)cc3)c3ccccc3n2)cc1` [Compound 4g, (E )-3-{4-{{4-[(4-Chlorobenzyl)oxy]phenyl}amino}quinolin-2-yl}-1-(4-methoxy - phenyl)prop-2-en-1-one], the values for the concentration for half-maximal inhibition (IC50) in series [1], in series [2] and in series [3] were > 20000 nM, 1310 ± 560 nM and 1710 ± 350 nM, respectively.

Take `COc1ccc(C(=O)/C=C/c2cc(Nc3ccc(OCc4ccc(F)cc4)cc3)c3ccccc3n2)cc1` [Compound 4h, (E)-3-{4-{ {4-[ (4-Fluorobenzyl)oxy]phenyl}amino}quinolin-2-yl}-1-(4-methoxy - phenyl)prop-2-en-1-one]: the figures for the half-inhibitory concentration (IC50) in series [1], in series [2] and in series [3] were > 20000 nM, 1370 ± 280 nM and 1690 ± 210 nM, respectively.

Regarding `O=C(/C=C/c1cc(Nc2ccc(OCc3ccccc3)cc2)c2ccccc2n1)c1ccc(F)cc1` [Compound 5a, (E)-3-{4-{[4-(Benzyloxy)phenyl]amino}quinolin-2-yl}-1-(4-fluorophenyl)prop-2-en-1-one], the IC50 in series [1] was > 20000 nM; in series [2] it was 1240 ± 90 nM; in series [3] it was 1650 ± 770 nM.

As for `O=C(/C=C/c1cc(Nc2ccc(OCc3ccccc3Cl)cc2)c2ccccc2n1)c1ccc(F)cc1` [Compound 5b, (E)-3-{4-{{4-[(2-Chlorobenzyl)oxy]phenyl}amino}quinolin-2-yl}-1-(4-fluorophenyl) prop-2-en-1-one], the IC50 is > 20000 nM in series [1], 1240 ± 300 nM in series [2] and 1530 ± 210 nM in series [3].

`O=C(/C=C/c1cc(Nc2ccc(OCc3ccccc3F)cc2)c2ccccc2n1)c1ccc(F)cc1` [Compound 5c, (E)-3-{4-{{4-[(2-Fluorobenzyl)oxy]phenyl}amino}quinolin-2-yl}-1-(4-fluorophenyl) prop-2-en-1-one]: the IC50 in series [1] is > 20000 nM; in series [2], 1250 ± 70 nM; in series [3], 1420 ± 700 nM.

In the case of `O=C(/C=C/c1cc(Nc2ccc(OCc3cccc(Cl)c3)cc2)c2ccccc2n1)c1ccc(F)cc1` [Compound 5d, (E)-3-{4-{{4-[(3-Chlorobenzyl)oxy]phenyl}amino}quinolin-2-yl}-1-(4-fluorophenyl) prop-2-en-1-one], the IC50 in series [1] is > 20000 nM; in series [2], 1280 ± 210 nM; in series [3], 1760 ± 130 nM.

Consider `O=C(/C=C/c1cc(Nc2ccc(OCc3cccc(F)c3)cc2)c2ccccc2n1)c1ccc(F)cc1` [Compound 5e, (E)-3-{4-{{4-[(3-Fluorobenzyl)oxy]phenyl}amino}quinolin-2-yl}-1-(4-fluorophenyl)prop-2-en-1-one], for which the IC50 was > 20000 nM in series [1], 1270 ± 60 nM in series [2] and 1820 ± 280 nM in series [3].

For `COc1cccc(COc2ccc(Nc3cc(/C=C/C(=O)c4ccc(F)cc4)nc4ccccc34)cc2)c1` [Compound 5f, (E)-1-(4-Fluorophenyl)-3-{4-{{4-[(3-methoxybenzyl)oxy]phenyl}amino}quinolin-2-yl}prop-2-en-1-one], the IC50 in series [1] is > 20000 nM; in series [2], 1340 ± 350 nM; in series [3] it was 2030 ± 140 nM.

With `O=C(/C=C/c1cc(Nc2ccc(OCc3ccc(Cl)cc3)cc2)c2ccccc2n1)c1ccc(F)cc1` [Compound 5g, (E)-3-{4-{{4-[(4-Chlorobenzyl)oxy]phenyl}amino}quinolin-2-yl}-1-(4-fluorophenyl)prop-2-en-1-one], the concentration for half-maximal inhibition (IC50) was > 20000 nM in series [1], 1300 ± 140 nM in series [2] and 1500 ± 770 nM in series [3].

Take `O=C(/C=C/c1cc(Nc2ccc(OCc3ccc(F)cc3)cc2)c2ccccc2n1)c1ccc(F)cc1` [Compound 5h, (E)-3-{4-{{4-[(4-Fluorobenzyl)oxy]phenyl}amino}quinolin-2-yl}-1-(4-fluorophenyl)prop-2-en-1-one]: the IC50 is > 20000 nM in series [1], 1290 ± 280 nM in series [2] and 1680 ± 210 nM in series [3].

The values above are taken from paper PMC10094048, “Synthesis and Anticancer Evaluation of 4-Anilinoquinolinylchalcone Derivatives” (International Journal of Molecular Sciences, 2023).
